The results in this text go back to publication PMC11889516 (Microbial Biotechnology, 2025).

Usually Kd stands for the free concentration of one partner at which half of the binding sites on the other are occupied at equilibrium, for simple one-to-one binding. As a reminder, the Km is the concentration of substrate that gives half-maximal velocity.

One series addresses T1, CYP116B234 (Rhodococcus globerulus, UniProt A0ABU4C0V8).
T1 construct: gene R3Q16_26300; full-length, N-terminal polyhistidine tag (GenBank MCE4265947.1)
T1 sequence (A0ABU4C0V8 1-767): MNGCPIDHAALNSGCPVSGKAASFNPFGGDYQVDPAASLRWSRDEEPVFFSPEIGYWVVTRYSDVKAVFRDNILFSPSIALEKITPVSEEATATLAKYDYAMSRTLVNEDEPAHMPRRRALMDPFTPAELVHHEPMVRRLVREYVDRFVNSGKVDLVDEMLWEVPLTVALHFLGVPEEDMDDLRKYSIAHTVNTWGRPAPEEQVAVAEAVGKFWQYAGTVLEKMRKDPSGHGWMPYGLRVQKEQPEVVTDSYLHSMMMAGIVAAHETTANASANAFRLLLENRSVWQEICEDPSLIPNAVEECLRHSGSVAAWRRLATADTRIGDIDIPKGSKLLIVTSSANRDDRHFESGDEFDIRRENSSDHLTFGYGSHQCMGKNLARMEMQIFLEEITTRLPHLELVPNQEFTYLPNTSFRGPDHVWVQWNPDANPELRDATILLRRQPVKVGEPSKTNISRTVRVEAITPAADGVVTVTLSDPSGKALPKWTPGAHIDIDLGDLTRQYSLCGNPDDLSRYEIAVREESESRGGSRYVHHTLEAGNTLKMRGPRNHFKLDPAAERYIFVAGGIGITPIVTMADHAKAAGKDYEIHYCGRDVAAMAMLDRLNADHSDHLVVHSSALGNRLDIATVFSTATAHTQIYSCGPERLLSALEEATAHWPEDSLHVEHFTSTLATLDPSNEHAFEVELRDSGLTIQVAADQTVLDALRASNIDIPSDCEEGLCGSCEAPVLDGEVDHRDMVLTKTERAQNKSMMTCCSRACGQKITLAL
Put plainly: UV-visible difference spectroscopy titration (heme spin-state shift); also NADPH consumption and turnover with purified enzyme. In kind it is binding.

Substrate in series [1]: NC(=O)C1=CN([C@@H]2O[C@H](COP(=O)(O)OP(=O)(O)OC[C@H]3O[C@@H](n4cnc5c(N)ncnc54)[C@H](O)[C@@H]3O)[C@@H](O)[C@H]2O)C=CC1
Put plainly: purified protein. To be noted: FMN, [2Fe-2S], heme reductase domain; varied: cofactor.

Substrate in series [2]: NC(=O)C1=CN([C@@H]2O[C@H](COP(=O)(O)OP(=O)(O)OC[C@H]3O[C@@H](n4cnc5c(N)ncnc54)[C@H](OP(=O)(O)O)[C@@H]3O)[C@@H](O)[C@H]2O)C=CC1
Put plainly: purified protein. It counts as biochemical, Rhodococcus globerulus. The settings on record: FMN, [2Fe-2S], heme reductase domain; varied: cofactor.

In the case of `O=C(O)Cc1ccccc1O` [2-HPA, 2‐hydroxyphenylacetic acid], the equilibrium dissociation constant (Kd) at CYP116B234 was 0.7 ± 0.1 µM. In the case of `O=C(O)CCc1ccccc1O` [HPPA, 3‐(2‐hydroxyphenyl)propionic acid], at CYP116B234, the Kd came to 1.9 ± 0.1 µM.

B1: CYP116B234 (Rhodococcus globerulus) (protein)
chain: T1 sequence (A0ABU4C0V8 1-767)
notes: full-length, N-terminal polyhistidine tag (GenBank MCE4265947.1)
In the case of B1, the Km was 240 ± 20 µM in the series “purified protein [1]” and 0.5 ± 0.4 µM in “purified protein [2]”.
